Columns and labels:
[1] = test system: C. tyrobutyricum original culture (wild type); experiment: Butyrate inhibition of cell growth, noncompetitive product inhibition model, original culture; assay type: cell-based, Clostridium tyrobutyricum
[2] = test system: P. acidipropionici adapted ACK-Tet from FBB; conditions: at 20 g/L propionic acid
[3] = test system: P. acidipropionici wild type; experiment: Propionic acid inhibition of specific growth rate, free-cell culture, wild type; conditions: at 20 g/L propionic acid

CCCC(=O)O [butyric acid]
butyrate concentration beyond which the culture lost its ability to grow [1]: > 20 g/L

CCC(=O)O [propionic acid]
specific growth rate retained relative to 0 g/L of propionic acid [2]: about 75%
growth rate lost [3]: more than 80%

From patent US20110151529A1, “METHODS AND PROCESSES FOR PRODUCING ORGANIC ACIDS” (THE OHIO STATE UNIVERSITY, priority 2008, published 2011)
